Test results published in the supplement of paper PMC12137928.
Structures can show the parent of a compound that is named as a salt.

Experiments:
HCT116 [1] = assay: efficacy (maximum % inhibition of viability vs DMSO); higher = more cytotoxic; conditions: 72 h
Summary of the method: (§1)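 Luminescence was read with CellTiter-Glo in HCT116 cells seeded at 250 per well in 1536-well plates. Signals were scaled between vehicle at 0% and positive control at -100%, then pattern-corrected. IC50 and maximal efficacy were obtained by fitting a four-parameter Hill equation.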

HCT116 [2] = conditions: 72 h
Summary of the method: as §1

Compound | efficacy (HCT116 [1]; ICRF193 0 nM) [%] | efficacy (HCT116 [1]; ICRF193 200 nM) [%] | IC50 cell viability (HCT116 [2]; ICRF193 0 nM) [µM] | IC50 cell viability (HCT116 [2]; ICRF193 200 nM) [µM]
Cc1cccc(C)c1OCC(=O)N[C@@H](Cc1ccccc1)[C@@H](O)C[C@H](Cc1ccccc1)NC(=O)[C@H](C(C)C)N1CCCNC1=O [Lopinavir] | 50.2 | 73.7 | 18.3 | 29.1
CC[C@H](C)C(=O)O[C@H]1C[C@@H](C)C=C2C=C[C@H](C)[C@H](CC[C@@H]3C[C@@H](O)CC(=O)O3)[C@H]21 [Lovastatin] | – | 46.5 | > 45.8 | 20.6
O=C(NC(=O)c1c(F)cccc1F)Nc1cc(Cl)c(OC(F)(F)C(F)C(F)(F)F)cc1Cl (stereo not drawn) [Lufenuron] | – | 41.2 | > 45.8 | 18.3
N#C/C(=C1/SC[C@@H](c2ccc(Cl)cc2Cl)S1)n1ccnc1 [Luliconazole] | – | 44.9 | > 45.8 | 20.6
CCCCN(CCCC)CC(O)c1cc(Cl)cc2c1-c1ccc(Cl)cc1/C2=C/c1ccc(Cl)cc1 (stereo not drawn) [Lumefantrine] | 120 | 113 | 23.1 | 18.3
O=C1[C@@H]2[C@H]3CC[C@H](C3)[C@@H]2C(=O)N1C[C@@H]1CCCC[C@H]1CN1CCN(c2nsc3ccccc23)CC1 [Lurasidone (Hydrochloride)] | – | 46.3 | > 45.8 | 29.1
NCCCC[C@H](NC(=O)[C@@H]1CCCN1C(=O)[C@@H]1CSSC[C@H](N)C(=O)N[C@@H](Cc2ccc(O)cc2)C(=O)N[C@@H](Cc2ccccc2)C(=O)N[C@@H](CCC(N)=O)C(=O)N[C@@H](CC(N)=O)C(=O)N1)C(=O)NCC(N)=O [Lypressin] | – | 51.6 | > 45.8 | 29.1
CN1CCc2c(c3ccccc3n2Cc2ccccc2)C1 [MEBHYDROLIN] | – | 41.4 | > 45.8 | 11.6
NC(=O)c1cccc2cn(-c3ccc([C@@H]4CCCNC4)cc3)nc12 [MK-4827] | 72.9 | 114 | 29.1 | 18.3
C=C[C@@H]1C[C@]1(NC(=O)[C@@H]1C[C@@H]2CN1C(=O)[C@H](C(C)(C)C)NC(=O)O[C@@H]1C[C@H]1CCCCCc1nc3ccc(OC)cc3nc1O2)C(=O)NS(=O)(=O)C1CC1 [MK-5172] | 91.6 | 81.1 | 29.1 | 18.3
CC(C)C[C@H](NC(=O)CNC(=O)c1cc(Cl)ccc1Cl)B1OC(=O)C(CC(=O)O)(CC(=O)O)O1 [MLN9708] | 96.2 | 94.4 | 0.13 | 0.103
CN(C)c1ccc(C(=C2C=CC(=[N+](C)C)C=C2)c2ccccc2)cc1 [Malachite green oxalate] | 98.5 | 96 | 0.183 | 0.231
COC(=O)C1=C(C)NC(C)=C(C(=O)OCCN2CCN(C(c3ccccc3)c3ccccc3)CC2)C1c1cccc([N+](=O)[O-])c1 (stereo not drawn) [Manidipine] | 92 | 90.1 | 18.3 | 18.3
CNCCCC12CCC(c3ccccc31)c1ccccc12 [Maprotiline hydrochloride] | – | 86.5 | > 45.8 | 29.1
COc1ccc(C(C)(C)C)cc1CN[C@H]1C2CCN(CC2)[C@H]1C(c1ccccc1)c1ccccc1 [Maropitant] | 60.3 | 96 | 18.3 | 18.3
Cc1ccc(NC(=O)c2ccc(CN3CCN(C)CC3)cc2)cc1Nc1nc(-c2cccnc2)cs1 [Masitinib] | 43.6 | 66.8 | 11.6 | 20.6
NS(=O)(=O)c1ccc(-n2nc(C(F)(F)F)cc2-c2ccc(F)cc2)cc1 [Mavacoxib] | 56.9 | 51.5 | 29.1 | 20.6
COC(=O)Nc1nc2cc(C(=O)c3ccccc3)ccc2[nH]1 [Mebendazole] | 55.3 | 61.9 | 20.6 | 0.92
Cc1cccc(CN2CCN(C(c3ccccc3)c3ccc(Cl)cc3)CC2)c1 (stereo not drawn) [Meclizine hydrochloride] | – | 49.1 | > 45.8 | 29.1
C=C1c2c(Cl)ccc(O)c2C(=O)C2=C(O)[C@]3(O)C(=O)C(C(N)=O)=C(O)[C@@H](N(C)C)[C@@H]3[C@@H](O)[C@H]12.O=C(O)c1cc(S(=O)(=O)O)ccc1O [Meclocycline sulfosalicylate] | 54.3 | 64 | 20.6 | 29.1

Compound | efficacy (HCT116 [1]; ICRF193 0 nM) [%] | efficacy (HCT116 [1]; ICRF193 200 nM) [%] | IC50 cell viability (HCT116 [2]; ICRF193 0 nM) [µM] | IC50 cell viability (HCT116 [2]; ICRF193 200 nM) [µM]
OC(c1cc(C(F)(F)F)nc2c(C(F)(F)F)cccc12)C1CCCCN1 (stereo not drawn) [Mefloquine hydrochloride] | 116 | 98 | 23.1 | 23.1
C=C1C[C@H]2[C@@H]3C=C(C)C4=CC(=O)CC[C@]4(C)[C@H]3CC[C@]2(C)[C@@]1(OC(C)=O)C(C)=O [Melengestrol acetate] | – | 40.9 | > 45.8 | 18.3
CN(C)CCC=C1c2ccccc2C(C)(C)c2ccccc21 [Melitracen hydrochloride] | – | 61.4 | > 45.8 | 29.1
Cc1cc(O)c2ccccc2c1O [Menadiol] | – | 41.5 | > 45.8 | 20.6
CC1(S(=O)(=O)O)CC(=O)c2ccccc2C1=O (stereo not drawn) [Menadione sodium bisulfite] | 102 | 40.7 | 18.3 | 29.1
c1ccc2c(c1)Sc1ccccc1N2CC1CN2CCC1CC2 (stereo not drawn) [Mequitazine] | 103 | 96.8 | 16.4 | 20.6
CN1CCC(CN2c3ccccc3Sc3ccccc32)C1 (stereo not drawn) [Methdilazine hydrochloride] | – | 53.5 | > 45.8 | 18.3
CN(Cc1cnc2nc(N)nc(N)c2n1)c1ccc(C(=O)N[C@@H](CCC(=O)O)C(=O)O)cc1 [Methotrexate] | 91.8 | 93.9 | 0.146 | 0.146
COc1ccc2c(c1)N(C[C@H](C)CN(C)C)c1ccccc1S2 [Methotrimeprazine maleat salt] | – | 50.8 | > 45.8 | 23.1
CO[C@H]1[C@@H](O)C[C@H](O[C@H]2[C@@H](O)C[C@H](O[C@H]3[C@@H](O)C[C@H](O[C@H]4CC[C@@]5(C)[C@H](CC[C@@H]6[C@@H]5C[C@@H](O)[C@]5(C)[C@@H](C7=CC(=O)OC7)CC[C@]65O)C4)O[C@@H]3C)O[C@@H]2C)O[C@@H]1C [Methyldigoxin] | 90.7 | 86.6 | 0.0891 | 0.1
CN(C)c1ccc2nc3ccc(=[N+](C)C)cc-3sc2c1 [Methylene blue] | 109 | 91.6 | 3.66 | 2.31
CN(C)c1ccc(C(=C2C=CC(=[N+](C)C)C=C2)c2ccc(N(C)C)cc2)cc1 [Methylrosaniline chloride] | 89.5 | 90.4 | 0.326 | 0.164
CN1CCCC(CC2c3ccccc3Sc3ccccc32)C1 (stereo not drawn) [Metixene hydrochloride] | 109 | 94.6 | 20.6 | 25.9
CN1CCN2c3ccccc3Cc3ccccc3C2C1 (stereo not drawn) [Mianserin] | 51 | 62 | 23.1 | 29.1
CCCCCCCCCCCCCCCCCCNC(=O)OC1CCN(C(=O)OC[C@H](COC(=O)N(Cc2cccc[n+]2CC)C(=O)c2ccccc2OC)OC)CC1 [Minopafant] | 111 | 124 | 11.6 | 16.4
CCCCCCCCCCCCCC[n+]1ccc(C)cc1 [Miripirium chloride] | 104 | 70 | 11.6 | 8.2
O=C1c2c(O)ccc(O)c2C(=O)c2c(NCCNCCO)ccc(NCCNCCO)c21 [Mitoxantrone] | 90.7 | 96.4 | 2.31 | 2.06
C[C@@H]1C[C@H]2[C@@H]3CCC4=CC(=O)C=C[C@]4(C)[C@@]3(Cl)[C@@H](O)C[C@]2(C)[C@@]1(OC(=O)c1ccco1)C(=O)CCl [Mometasone furoate] | 102 | 97.9 | 18.3 | 20.6
O=C(CCCN1CCN(c2ccc(F)cc2)CC1)NC1c2ccccc2CSc2ccccc21 (stereo not drawn) [Monatepil] | 123 | 93.7 | 23.1 | 23.1
